Results: article PMC10018608 (Signal Transduction and Targeted Therapy, 2023)
Like-named read-outs stand apart in the source and are kept apart here.

Assays:
in vitro [1] = assay type: in vitro ADME; settings: human, microsomes, HLM 0.5 mg/mL, 1 μM; for remaining at 0 h: 0 min, read-out: Percent Remaining (%) 0 min; for remaining at 0 h / remaining at 5 min / remaining at […] / remaining at 0.5 h / remaining at 0.75 h / remaining at 1 h: Mean; for remaining at 5 min: read-out: Percent Remaining (%) 5 min; for remaining at […]: 15 min, read-out: Percent Remaining (%) 15 min; for remaining at 0.5 h: 30 min, read-out: Percent Remaining (%) 30 min; for remaining at 0.75 h: 45 min, read-out: Percent Remaining (%) 45 min; for remaining at 1 h: 60 min, read-out: Percent Remaining (%) 60 min; for CLint scaled: scaling factor 1254.2
in vitro [2] = assay type: cell-based
Protocol: Cells were seeded and grown in 96 well plates overnight. Then various concentrations of compounds in fresh medium were added and incubated for 72 h. Using MTT (Sigma) assay to determine the cell viability.

[3] = SD rats
in vivo = settings: male, Sprague-Dawley, rat
SARS-CoV-2 (BA.5) = assay: microbe, parasite or virus in culture; assay type: cell-based; settings: Severe acute respiratory syndrome coronavirus 2, VeroE6-TMPRSS2, read-out: EC50 (plaque reduction)
SARS-CoV-2 (BA.2) = assay: Plaque reduction assay in VeroE6-TMPRSS2; assay type: cell-based; settings: Severe acute respiratory syndrome coronavirus 2
SARS-CoV-2 (B.1.1.7) = assay: Plaque reduction assay in VeroE6-TMPRSS2; assay type: cell-based; settings: Severe acute respiratory syndrome coronavirus 2
SARS-CoV-2 (B.1.351) = assay: Plaque reduction assay in VeroE6-TMPRSS2; assay type: cell-based; settings: Severe acute respiratory syndrome coronavirus 2
SARS-CoV-1 = assay: microbe, parasite or virus in culture; assay type: cell-based; settings: Severe acute respiratory syndrome coronavirus, VeroE6/TMPRSS2, read-out: EC50 (plaque reduction)
MERS-CoV = assay: microbe, parasite or virus in culture; assay type: cell-based; settings: Middle East respiratory syndrome-related coronavirus, VeroE6/TMPRSS2, read-out: EC50 (plaque reduction)
in vitro [4] = assay type: in vitro ADME, human; settings: human, plasma
[5] = African green monkey, VeroE6, MTT, 72 h

Compound	half-life (in vitro [1]) [h]	remaining at 0 h (in vitro [1]) [%]	remaining at 5 min (in vitro [1]) [%]	remaining at […] (in vitro [1]) [%]	remaining at 0.5 h (in vitro [1]) [%]	remaining at 0.75 h (in vitro [1]) [%]	remaining at 1 h (in vitro [1]) [%]	CLint scaled (in vitro [1]) [mL/min/kg]	CC50 (in vitro [2]; [5]) [µM]	CC50 (in vitro [2]; human, BEAS-2B, MTT, 72 h) [µM]	CC50 (in vitro [2]; human, HUVEC, MTT, 72 h) [µM]	MTRlast ([3]; i.v. (1 mg/kg)) [h]	Vzobs ([3]; i.v. (1 mg/kg)) [L/kg]	MTRlast ([3]; p.o. (10 mg/kg)) [h]	AUC(0-inf) (in vivo; iv, 1 mg/kg) [ng·h/mL]	AUC(0-t) (in vivo; iv, 1 mg/kg) [ng·h/mL]	Cmax (in vivo; iv, 1 mg/kg) [ng/mL]	Tmax (in vivo; iv, 1 mg/kg) [h]	clearance (in vivo; iv, 1 mg/kg) [mL/min/kg]	half-life (in vivo; iv, 1 mg/kg) [h]	other results
O=C(CC1CC(F)(F)C1)NCC(=O)N[C@H](Cc1ccccc1)C(=O)C(=O)NCc1nccs1 [3q]	0.426	100	86	63.1	40.1	30.3	19.1	68.1													
C[C@@H](NC(=O)C1CCC(F)(F)CC1)C(=O)N[C@H](Cc1ccccc1)C(=O)C(=O)NCc1nccs1 [3r]	0.594	100	91.5	73.2	51	39.1	32.5	48.8	> 500	> 500	> 500	1.31 ± 0.54	3.05 ± 2.08	4.89 ± 1.14	1020 ± 262	1010 ± 258	1110 ± 70	0.08	17 ± 3.8	2.41 ± 2.24	AUC(0-inf) (in vivo; po, 10 mg/kg): 2840 ± 327 ng·h/mL; AUC(0-t) (in vivo; po, 10 mg/kg): 2570 ± 679 ng·h/mL; Cmax (in vivo; po, 10 mg/kg): 306 ± 32.1 ng/mL; Tmax (in vivo; po, 10 mg/kg): 2.67 ± 1.15 h; bioavailability (in vivo; po, 10 mg/kg): 25.4 ± 6.71%; half-life (in vivo; po, 10 mg/kg): 3.01 ± 0.91 h
C[C@@H](NC(=O)C1CCCC(F)(F)C1)C(=O)N[C@H](Cc1ccccc1)C(=O)C(=O)NCc1nccs1 (some centres unmarked) [3s]	0.424	100	81.7	64.2	42	28.4	18.9	68.4													
C[C@@H](NC(=O)C1CCC(F)(F)C1)C(=O)N[C@H](Cc1ccccc1)C(=O)C(=O)NCc1nccs1 (some centres unmarked) [3t]	0.704	100	89.1	73.5	56.2	46.2	37	41.2	> 500	> 500	> 500	1.26 ± 0.42	2.49 ± 1.61	5.90 ± 0.79	1330 ± 556	1290 ± 531	1320 ± 168	0.08	14.5 ± 7.25	1.9 ± 0.27	AUC(0-inf) (in vivo; po, 10 mg/kg): 6900 ± 2620 ng·h/mL; AUC(0-t) (in vivo; po, 10 mg/kg): 6720 ± 2460 ng·h/mL; Cmax (in vivo; po, 10 mg/kg): 635 ± 161 ng/mL; Tmax (in vivo; po, 10 mg/kg): 1.67 ± 0.58 h; bioavailability (in vivo; po, 10 mg/kg): 52 ± 19.1%; half-life (in vivo; po, 10 mg/kg): 4.15 ± 1.48 h
C[C@@H](NC(=O)CC1CC(F)(F)C1)C(=O)N[C@H](Cc1ccccc1)C(=O)C(=O)NCc1nccs1 [3u]									> 500	> 500	> 500	3.19 ± 0.31	3.65 ± 0.74	6.57 ± 0.38	2250 ± 672	2200 ± 634	1570 ± 201	0.08	7.95 ± 2.8	5.47 ± 0.77	AUC(0-inf) (in vivo; po, 10 mg/kg): 8700 ± 1120 ng·h/mL; AUC(0-t) (in vivo; po, 10 mg/kg): 8180 ± 795 ng·h/mL; Cmax (in vivo; po, 10 mg/kg): 735 ± 102 ng/mL; Tmax (in vivo; po, 10 mg/kg): 1.33 ± 0.58 h; bioavailability (in vivo; po, 10 mg/kg): 37.2 ± 3.62%; half-life (in vivo; po, 10 mg/kg): 5.84 ± 1.3 h
COC[C@@H](NC(=O)C1CCC(F)(F)CC1)C(=O)N[C@H](Cc1ccccc1)C(=O)C(=O)NCc1nccs1 [3v]	0.65	100	88.3	73.2	54.5	42.3	34.7	44.6	132 ± 19.8	159 ± 4.34	129 ± 13.4	3.55 ± 0.52	5.25 ± 2.13	7.63 ± 0.57	2830 ± 959	2570 ± 820	1700 ± 237	0.08	6.48 ± 2.63	9.49 ± 2.16	CC50 (in vitro [2]; human (BEAS-2B, African green monkey (VeroE6)), across BEAS-2B, VeroE6, and HUVEC cells, MTT): 129 to 159 µM; AUC(0-inf) (in vivo; po, 10 mg/kg): 14000 ± 783 ng·h/mL; AUC(0-t) (in vivo; po, 10 mg/kg): 12700 ± 1270 ng·h/mL; Cmax (in vivo; po, 10 mg/kg): 1010 ± 115 ng/mL; Tmax (in vivo; po, 10 mg/kg): 4 h; bioavailability (in vivo; po, 10 mg/kg): 49.2 ± 4.92%; half-life (in vivo; po, 10 mg/kg): 6.64 ± 1.17 h
COC[C@@H](NC(=O)CC1CC(F)(F)C1)C(=O)N[C@H](Cc1ccccc1)C(=O)C(=O)NCc1nccs1 [3x]	0.507	100	91.1	71.5	50.5	34.3	26.5	57.2	> 500	> 500	> 500	3.18 ± 0.53	3.28 ± 1.17	6.47 ± 0.50	2390 ± 645	2360 ± 639	1350 ± 116	0.08	7.3 ± 1.9	5.09 ± 0.57	AUC(0-inf) (in vivo; po, 10 mg/kg): 11200 ± 364 ng·h/mL; AUC(0-t) (in vivo; po, 10 mg/kg): 10800 ± 124 ng·h/mL; Cmax (in vivo; po, 10 mg/kg): 806 ± 75.4 ng/mL; Tmax (in vivo; po, 10 mg/kg): 2 h; bioavailability (in vivo; po, 10 mg/kg): 45.8 ± 0.52%; half-life (in vivo; po, 10 mg/kg): 4.67 ± 1.04 h
O=C(c1ccc(F)cc1)C1CCN(CCn2c(=O)[nH]c3ccccc3c2=O)CC1 [Ketanserin, reference compound]	0.373		86.9	62.2	38.1	24.4	15.9	77.6													
CC(C)(C)[C@H](NC(=O)C(F)(F)F)C(=O)N1C[C@H]2[C@@H]([C@H]1C(=O)N[C@H](C#N)C[C@@H]1CCNC1=O)C2(C)C [Nirmatrelvir, reference compound]	0.407	100	86.5	60	38.7	26	18.6	71.2													EC50 (SARS-CoV-2 (BA.5)): 5.05 µM; EC50 (SARS-CoV-2 (BA.2)): 1.08 µM; EC50 (SARS-CoV-2 (B.1.1.7)): 49.4 µM; EC50 (SARS-CoV-2 (B.1.351)): 28.8 µM; EC50 (SARS-CoV-1): 7.66 µM; EC50 (MERS-CoV): 11.3 µM
CC(=O)CC(c1ccccc1)c1c(O)c2ccccc2oc1=O (centres unmarked) [Warfarin, reference compound]																					fraction unbound (in vitro [4]): 0.009
